Measured values: patent US6960590B2, “Orally active salts with tyrosine kinase activity” (Merck & Co. Inc., priority 2000, dated 2005)
Where a name gives a salt, the structure may show the parent alone. Each block holds one compound with its values, some of them ahead of it.

How the values were obtained:
Assay type in all cases: physicochemical
[1] = Measurement of salt solubility: salts of 1-11 formed in situ and suspended in water, HPLC (UV-Vis); settings: for Solubility: free base plus 1.05-1.1 molar equivalence of acid, suspended in water for several days, method overestimates the solubility; for pH: pH in equilibrium with the solid phase of the salt suspended in water, most likely lower than pH of the salt in water
Method: The solid free base was treated with a concentrated solution of the appropriate acid (1.05-1.1 molar equivalence) and suspended in water for several days. The pH and concentration of the compound in equilibrium with the solid phase was measured by HPLC (UV-Vis detection). This method overestimates the solubility of the salt due to the 5-10% excess of the acid that is added in the preparation of the salts. For the same reason, the pH's that are obtained are most likely lower than the pH of the salt in water.

[2] = Solubility of salts of 4-9 prepared in situ (pH and concentration by HPLC); settings: for Solubility: free base plus 1.05 mole equivalents of acid, suspended in 100 μL of water, rotated overnight, centrifuged; for pH: pH of the liquid residue of the aqueous suspension
Source text: Two forms of the mesylate salt were made: Salt 4-9A above and Salt 4-9B below.

[3] = Solubility of free base 1-11 at room temperature in 0.05M aqueous buffers, water and organic solvents (HPLC)
Method: The solubility of 1-11 at room temperature was determined in 0.05M aqueous buffers, water and several organic solvents.

[4] = Solubility of isolated crystalline salts of 1-11 in water and organic solvents; settings: for solubility at 7 days: thermodynamic from solid, RT for 7 days
Method: The amorphous mesylate salt was recrystallized from 50:50 Ethanol:THF to give a crystalline powder (Salt 1-11A). The X-ray powder diffraction pattern (XRPD) of the recrystallized mesylate salt 1-11A (FIG. 2) is indicative of crystalline material with multiple diffraction peaks between 5° and 30° 2-theta.
A second batch of crystalline mesylate salt (Salt 1-11B) was obtained by the following procdeure. To a stirred suspension of 1-11 (4.026 g, 9.22 mmol) in MeOH was slowly added at room temperature (RT) one equivalent of a 0.3M solution of methanesulfonic acid (30.73 mL). After all the solid had dissolved, the mixture was filtered into a flask and concentrated under reduced pressure while cooled to about 10° C. The resulting solid was suspended with 200 mL of ethylacetate, filtered, and dried to afford the mesylate salt. […] This crystalline form is different by XRPD than the one recrystallized from the amorphous salt in EtOH/THF (Salt 1-11A).
HCl salt 1-11D is also crystalline as witnessed by the X-ray powder diffraction pattern of the material, having multiple diffraction peaks between 5° and 30° 2-theta. […] (rate of 10° C./min). The compound is birefringent under plane polarized light. It is needle-shaped particles of approximately 5-25 micron. The solubility of salt 1-11D was measured in water and various organic solvents. Table VI below summarizes the solubility of the 1-11D suspended in various solvents for 7 days at room temperature.

Structure (SMILES): CS(=O)(=O)N1CCN(Cc2ccc3[nH]c(-c4cc5ccccc5[nH]c4=O)cc3c2)CC1 [Acetate salt of 1-11, 3-[5-(4-Methanesulfonyl-piperazin-1-ylmethyl)-1H-indol-2-yl]-1H-quinolin-2-one]
Solubility [1]: 91 µg/mL
pH [1]: 3.3

Structure (SMILES): CS(=O)(=O)N1CCN(Cc2ccc3[nH]c(-c4cc5ccccc5[nH]c4=O)cc3c2)CC1 [Besylate salt of 1-11, 3-[5-(4-Methanesulfonyl-piperazin-1-ylmethyl)-1H-indol-2-yl]-1H-quinolin-2-one]
Solubility [1]: 3.8 µg/mL
pH [1]: 2.4

Structure (SMILES): CS(=O)(=O)N1CCN(Cc2ccc3[nH]c(-c4cc5ccccc5[nH]c4=O)cc3c2)CC1 [Citrate salt of 1-11, 3-[5-(4-Methanesulfonyl-piperazin-1-ylmethyl)-1H-indol-2-yl]-1H-quinolin-2-one]
Solubility [1]: 110 µg/mL

Structure (SMILES): COCCN(C)CCOc1ccc2[nH]c(-c3cc4ccccc4[nH]c3=O)cc2c1 [Citrate salt of 4-9, 3-(5-{2-[(2-methoxyethyl)(methyl)amino]ethoxy}-1H-indol-2-yl)-2(1H)-quinolinone]
Solubility [2]: 19800 µg/mL
pH [2]: 3.33

Structure (SMILES): COCCN(C)CCOc1ccc2[nH]c(-c3cc4ccccc4[nH]c3=O)cc2c1 [Mesylate 4-9B, 3-(5-{2-[(2-methoxyethyl)(methyl)amino]ethoxy}-1H-indol-2-yl)-2(1H)-quinolinone]
Solubility [2]: 22000 µg/mL

Structure (SMILES): COCCN(C)CCOc1ccc2[nH]c(-c3cc4ccccc4[nH]c3=O)cc2c1 [Sulfate salt of 4-9, 3-(5-{2-[(2-methoxyethyl)(methyl)amino]ethoxy}-1H-indol-2-yl)-2(1H)-quinolinone]
pH [2]: 1.40

Structure (SMILES): COCCN(C)CCOc1ccc2[nH]c(-c3cc4ccccc4[nH]c3=O)cc2c1 [Tartrate salt of 4-9, 3-(5-{2-[(2-methoxyethyl)(methyl)amino]ethoxy}-1H-indol-2-yl)-2(1H)-quinolinone]
pH [2]: 3.23

Further lines, results first:

Solubility [1]: 200 µg/mL
pH [1]: 2.9
Structure (SMILES): CS(=O)(=O)N1CCN(Cc2ccc3[nH]c(-c4cc5ccccc5[nH]c4=O)cc3c2)CC1 [HBr salt of 1-11, 3-[5-(4-Methanesulfonyl-piperazin-1-ylmethyl)-1H-indol-2-yl]-1H-quinolin-2-one]

Solubility [1]: 430 µg/mL
pH [1]: 2.3
Structure (SMILES): CS(=O)(=O)N1CCN(Cc2ccc3[nH]c(-c4cc5ccccc5[nH]c4=O)cc3c2)CC1 [HCl salt of 1-11, 3-[5-(4-Methanesulfonyl-piperazin-1-ylmethyl)-1H-indol-2-yl]-1H-quinolin-2-one]

Solubility [1]: 160 µg/mL
pH [1]: 2.5
Structure (SMILES): CS(=O)(=O)N1CCN(Cc2ccc3[nH]c(-c4cc5ccccc5[nH]c4=O)cc3c2)CC1 [Maleate salt of 1-11, 3-[5-(4-Methanesulfonyl-piperazin-1-ylmethyl)-1H-indol-2-yl]-1H-quinolin-2-one]

Solubility [1]: 580 µg/mL
pH [1]: 2.3
Structure (SMILES): CS(=O)(=O)N1CCN(Cc2ccc3[nH]c(-c4cc5ccccc5[nH]c4=O)cc3c2)CC1 [Mesylate salt of 1-11, 3-[5-(4-Methanesulfonyl-piperazin-1-ylmethyl)-1H-indol-2-yl]-1H-quinolin-2-one]

Solubility ([3]; 0.05M Carbonate, pH final 10.09, room temperature): 79 µg/mL
Solubility ([3]; 0.05M Citrate, pH final 4.15, room temperature): 73 µg/mL
Solubility ([3]; 0.05M Citrate, pH final 5.07, room temperature): 70 µg/mL
Solubility ([3]; 0.05M Phosphate, pH final 7.93, room temperature): 74 µg/mL
Solubility ([3]; 0.05M Phosphate, pH final 8.86, room temperature): 73 µg/mL
Structure (SMILES): CS(=O)(=O)N1CCN(Cc2ccc3[nH]c(-c4cc5ccccc5[nH]c4=O)cc3c2)CC1 [Salt 1-11, 3-[5-(4-Methanesulfonyl-piperazin-1-ylmethyl)-1H-indol-2-yl]-1H-quinolin-2-one]

Solubility ([4]; acetonitrile, organic solvent or mixture): 30 µg/mL
Structure (SMILES): CS(=O)(=O)N1CCN(Cc2ccc3[nH]c(-c4cc5ccccc5[nH]c4=O)cc3c2)CC1 [Salt 1-11B, 3-[5-(4-Methanesulfonyl-piperazin-1-ylmethyl)-1H-indol-2-yl]-1H-quinolin-2-one]

solubility at 7 days ([4]; aqueous ETOH, aqueous with cosolvent or surfactant or cyclodextrin): 4340 µg/mL
solubility at 7 days ([4]; aqueous IPA, aqueous with cosolvent or surfactant or cyclodextrin): 3990 µg/mL
solubility at 7 days ([4]; ethanol, organic solvent or mixture): 130 µg/mL
solubility at 7 days ([4]; isopropanol, organic solvent or mixture): 57 µg/mL
solubility at 7 days ([4]; water): 620 µg/mL
Structure (SMILES): CS(=O)(=O)N1CCN(Cc2ccc3[nH]c(-c4cc5ccccc5[nH]c4=O)cc3c2)CC1 [Salt 1-11D, 3-[5-(4-Methanesulfonyl-piperazin-1-ylmethyl)-1H-indol-2-yl]-1H-quinolin-2-one]

Solubility [1]: 130 µg/mL
pH [1]: 1.5
Structure (SMILES): CS(=O)(=O)N1CCN(Cc2ccc3[nH]c(-c4cc5ccccc5[nH]c4=O)cc3c2)CC1 [Sulfate salt of 1-11, 3-[5-(4-Methanesulfonyl-piperazin-1-ylmethyl)-1H-indol-2-yl]-1H-quinolin-2-one]
